ChEMBL document CHEMBL4879554, “Data for DCP probe GNE-2256” (2021)
The source made the active and inactive calls. No cut-off for these calls is given here.

Key:
[1] = biological target: Mitogen-activated protein kinase 10 (Homo sapiens) (UniProt P53779); test: JNK3 Kinase panel; settings: Compound concentration 1.0 uM
[2] = biological target: 5-hydroxytryptamine receptor 5A (Homo sapiens) (UniProt P47898); settings: Compound concentration 10.0 uM
[3] = IFNalpha human whole blood assay; type: tissue-based
[4] = biological target: TGF-beta receptor type-1 (Homo sapiens) (UniProt P36897); test: TGFBR1 Kinase panel; settings: Compound concentration 1.0 uM
[5] = biological target: Mitogen-activated protein kinase 8 (Homo sapiens) (UniProt P45983); test: JNK1_alpha1 Kinase panel; settings: Compound concentration 1.0 uM
[6] = biological target: Protein-tyrosine kinase 6 (Homo sapiens) (UniProt Q13882); test: Brk Kinase panel; settings: Compound concentration 1.0 uM
[7] = biological target: Inhibitor of nuclear factor kappa-B kinase subunit alpha (Homo sapiens) (UniProt O15111); test: IKK_alpha Kinase panel; settings: Compound concentration 1.0 uM
[8] = biological target: Serine/threonine-protein kinase MRCK alpha (Homo sapiens) (UniProt Q5VT25); test: MRCK_alpha Kinase panel; settings: Compound concentration 1.0 uM
[9] = biological target: G protein-coupled receptor kinase 5 (Homo sapiens) (UniProt P34947); test: GRK5 Kinase panel; settings: Compound concentration 1.0 uM
[10] = biological target: High affinity nerve growth factor receptor (Homo sapiens, UniProt P04629); test: TrkA Kinase panel
[11] = biological target: Tyrosine-protein kinase Lyn (Homo sapiens) (UniProt P07948); test: Lyn Kinase panel; settings: Compound concentration 1.0 uM
[12] = biological target: cAMP-dependent protein kinase catalytic subunit PRKX (Homo sapiens) (UniProt P51817); test: PrKX Kinase panel; settings: Compound concentration 1.0 uM
[13] = biological target: Aurora kinase A (Homo sapiens) (UniProt O14965); test: Aurora_A Kinase panel; settings: Compound concentration 1.0 uM
[14] = biological target: Ephrin type-A receptor 8 (Homo sapiens) (UniProt P29322); test: EphA8 Kinase panel; settings: Compound concentration 1.0 uM
[15] = biological target: Beta-1 adrenergic receptor (Homo sapiens) (UniProt P08588); settings: Compound concentration 10.0 uM
Beta-1 adrenergic receptor (Homo sapiens), sequence (P08588 whole entry, looked up): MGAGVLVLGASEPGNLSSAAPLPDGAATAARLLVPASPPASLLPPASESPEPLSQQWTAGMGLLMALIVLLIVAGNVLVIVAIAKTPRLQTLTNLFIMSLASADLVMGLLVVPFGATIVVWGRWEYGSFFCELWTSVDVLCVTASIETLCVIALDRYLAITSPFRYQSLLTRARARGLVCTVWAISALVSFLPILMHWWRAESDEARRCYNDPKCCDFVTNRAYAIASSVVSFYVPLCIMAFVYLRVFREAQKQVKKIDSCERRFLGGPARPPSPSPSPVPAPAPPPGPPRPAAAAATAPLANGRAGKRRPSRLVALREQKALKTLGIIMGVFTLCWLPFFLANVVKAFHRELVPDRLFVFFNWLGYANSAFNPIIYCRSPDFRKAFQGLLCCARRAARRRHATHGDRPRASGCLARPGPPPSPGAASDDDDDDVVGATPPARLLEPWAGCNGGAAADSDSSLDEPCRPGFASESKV

[16] = biological target: Dual specificity protein kinase CLK2 (Homo sapiens) (UniProt P49760); test: CLK2 Kinase panel; settings: Compound concentration 1.0 uM
[17] = biological target: SRSF protein kinase 1 (Homo sapiens) (UniProt Q96SB4); test: SRPK1 Kinase panel; settings: Compound concentration 1.0 uM
[18] = biological target: Protein kinase C alpha type (Homo sapiens) (UniProt P17252); test: PKC_alpha Kinase panel; settings: Compound concentration 1.0 uM
[19] = biological target: Serine/threonine-protein kinase PAK 3 (Homo sapiens) (UniProt O75914); test: PAK3 Kinase panel; settings: Compound concentration 1.0 uM
[20] = biological target: Testis-specific serine/threonine-protein kinase 1 (Homo sapiens) (UniProt Q9BXA7); test: TSSK1 Kinase panel; settings: Compound concentration 1.0 uM
[21] = biological target: Dual specificity protein kinase CLK4 (Homo sapiens) (UniProt Q9HAZ1); test: CLK4 Kinase panel; settings: Compound concentration 1.0 uM
[22] = biological target: Casein kinase I isoform alpha (Homo sapiens) (UniProt P48729); test: CK1_alpha1 Kinase panel; settings: Compound concentration 1.0 uM
Casein kinase I isoform alpha (Homo sapiens), sequence (P48729 2-337 limits assumed): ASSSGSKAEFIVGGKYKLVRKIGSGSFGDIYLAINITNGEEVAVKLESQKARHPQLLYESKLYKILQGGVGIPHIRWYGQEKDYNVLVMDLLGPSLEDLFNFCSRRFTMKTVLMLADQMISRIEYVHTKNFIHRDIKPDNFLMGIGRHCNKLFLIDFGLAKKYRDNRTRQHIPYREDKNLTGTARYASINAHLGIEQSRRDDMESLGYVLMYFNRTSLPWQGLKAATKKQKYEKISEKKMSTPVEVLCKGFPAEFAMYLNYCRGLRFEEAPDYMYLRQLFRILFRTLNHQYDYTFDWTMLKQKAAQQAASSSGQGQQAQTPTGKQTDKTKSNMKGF

[23] = biological target: Serine/threonine-protein kinase SIK2 (Homo sapiens) (UniProt Q9H0K1); test: SIK2 Kinase panel; settings: Compound concentration 1.0 uM
[24] = biological target: Receptor-interacting serine/threonine-protein kinase 2 (Homo sapiens) (UniProt O43353); test: RIPK2 Kinase panel; settings: Compound concentration 1.0 uM
[25] = biological target: 5-hydroxytryptamine receptor 1A (Homo sapiens) (UniProt P08908); settings: Compound concentration 10.0 uM
5-hydroxytryptamine receptor 1A (Homo sapiens), sequence (P08908 whole entry): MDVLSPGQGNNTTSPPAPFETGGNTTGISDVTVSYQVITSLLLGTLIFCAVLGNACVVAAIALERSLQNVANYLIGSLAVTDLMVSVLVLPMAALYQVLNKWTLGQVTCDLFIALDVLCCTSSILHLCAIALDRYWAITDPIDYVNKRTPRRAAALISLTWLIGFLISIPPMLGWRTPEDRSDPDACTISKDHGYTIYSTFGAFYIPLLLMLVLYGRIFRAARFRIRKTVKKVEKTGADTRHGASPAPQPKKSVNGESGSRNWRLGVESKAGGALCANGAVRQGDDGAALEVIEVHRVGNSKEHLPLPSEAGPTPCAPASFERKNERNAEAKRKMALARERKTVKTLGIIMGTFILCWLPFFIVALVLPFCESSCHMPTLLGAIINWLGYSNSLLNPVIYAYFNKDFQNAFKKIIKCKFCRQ

[26] = test system: Epidermal growth factor receptor (Homo sapiens), P00533 [L858R,T790M]; test: EGFR(T790M,L8 58R) Kinase panel; settings: Compound concentration 1.0 uM
[27] = biological target: Serine/threonine-protein kinase 25 (Homo sapiens) (UniProt O00506); test: YSK1 Kinase panel; settings: Compound concentration 1.0 uM
[28] = biological target: Phosphorylase b kinase gamma catalytic chain, skeletal muscle/heart isoform (Homo sapiens) (UniProt Q16816); test: PhK_gamma1 Kinase panel; settings: Compound concentration 1.0 uM
Phosphorylase b kinase gamma catalytic chain, skeletal muscle/heart isoform (Homo sapiens), sequence (Q16816 whole entry, looked up, canonical isoform): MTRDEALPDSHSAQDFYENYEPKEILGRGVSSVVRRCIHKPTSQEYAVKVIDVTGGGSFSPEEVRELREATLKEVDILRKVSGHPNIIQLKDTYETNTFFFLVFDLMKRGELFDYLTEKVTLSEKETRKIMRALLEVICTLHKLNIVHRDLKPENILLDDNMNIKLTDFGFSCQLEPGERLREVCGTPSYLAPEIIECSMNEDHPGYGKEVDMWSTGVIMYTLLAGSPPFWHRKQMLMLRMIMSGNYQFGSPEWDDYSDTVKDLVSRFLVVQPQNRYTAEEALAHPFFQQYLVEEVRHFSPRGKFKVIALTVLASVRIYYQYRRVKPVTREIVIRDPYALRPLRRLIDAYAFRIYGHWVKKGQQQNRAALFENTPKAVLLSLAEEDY

[29] = biological target: 5-hydroxytryptamine receptor 6 (Homo sapiens) (UniProt P50406); settings: Compound concentration 10.0 uM
5-hydroxytryptamine receptor 6 (Homo sapiens), sequence (P50406 whole entry): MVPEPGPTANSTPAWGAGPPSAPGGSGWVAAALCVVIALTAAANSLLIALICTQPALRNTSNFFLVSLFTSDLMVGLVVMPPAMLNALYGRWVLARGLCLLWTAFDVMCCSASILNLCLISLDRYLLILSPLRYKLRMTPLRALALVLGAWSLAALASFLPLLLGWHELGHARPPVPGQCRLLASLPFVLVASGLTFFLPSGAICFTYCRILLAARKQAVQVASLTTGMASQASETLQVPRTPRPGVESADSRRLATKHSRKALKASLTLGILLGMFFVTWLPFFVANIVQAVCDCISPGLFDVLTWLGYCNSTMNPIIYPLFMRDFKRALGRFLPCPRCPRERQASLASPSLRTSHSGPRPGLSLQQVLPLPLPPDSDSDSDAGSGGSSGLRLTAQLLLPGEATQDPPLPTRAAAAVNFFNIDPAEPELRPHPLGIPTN

[30] = biological target: Beta-3 adrenergic receptor (Homo sapiens) (UniProt P13945); settings: Compound concentration 10.0 uM
Beta-3 adrenergic receptor (Homo sapiens), sequence (P13945 whole entry, looked up): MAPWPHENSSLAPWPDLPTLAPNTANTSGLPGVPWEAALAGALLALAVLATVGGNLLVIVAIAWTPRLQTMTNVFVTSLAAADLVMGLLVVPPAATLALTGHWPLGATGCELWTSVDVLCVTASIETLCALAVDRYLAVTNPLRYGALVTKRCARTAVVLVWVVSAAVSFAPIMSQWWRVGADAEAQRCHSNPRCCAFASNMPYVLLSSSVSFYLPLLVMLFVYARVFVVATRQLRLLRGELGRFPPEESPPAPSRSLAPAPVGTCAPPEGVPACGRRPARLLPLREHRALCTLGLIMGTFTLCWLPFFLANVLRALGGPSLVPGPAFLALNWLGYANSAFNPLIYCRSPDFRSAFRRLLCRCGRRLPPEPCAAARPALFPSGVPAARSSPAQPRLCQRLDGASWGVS

[31] = biological target: Mitogen-activated protein kinase kinase kinase 9 (Homo sapiens) (UniProt P80192); test: MLK1 Kinase panel; settings: Compound concentration 1.0 uM
Mitogen-activated protein kinase kinase kinase 9 (Homo sapiens), sequence (P80192 whole entry, looked up): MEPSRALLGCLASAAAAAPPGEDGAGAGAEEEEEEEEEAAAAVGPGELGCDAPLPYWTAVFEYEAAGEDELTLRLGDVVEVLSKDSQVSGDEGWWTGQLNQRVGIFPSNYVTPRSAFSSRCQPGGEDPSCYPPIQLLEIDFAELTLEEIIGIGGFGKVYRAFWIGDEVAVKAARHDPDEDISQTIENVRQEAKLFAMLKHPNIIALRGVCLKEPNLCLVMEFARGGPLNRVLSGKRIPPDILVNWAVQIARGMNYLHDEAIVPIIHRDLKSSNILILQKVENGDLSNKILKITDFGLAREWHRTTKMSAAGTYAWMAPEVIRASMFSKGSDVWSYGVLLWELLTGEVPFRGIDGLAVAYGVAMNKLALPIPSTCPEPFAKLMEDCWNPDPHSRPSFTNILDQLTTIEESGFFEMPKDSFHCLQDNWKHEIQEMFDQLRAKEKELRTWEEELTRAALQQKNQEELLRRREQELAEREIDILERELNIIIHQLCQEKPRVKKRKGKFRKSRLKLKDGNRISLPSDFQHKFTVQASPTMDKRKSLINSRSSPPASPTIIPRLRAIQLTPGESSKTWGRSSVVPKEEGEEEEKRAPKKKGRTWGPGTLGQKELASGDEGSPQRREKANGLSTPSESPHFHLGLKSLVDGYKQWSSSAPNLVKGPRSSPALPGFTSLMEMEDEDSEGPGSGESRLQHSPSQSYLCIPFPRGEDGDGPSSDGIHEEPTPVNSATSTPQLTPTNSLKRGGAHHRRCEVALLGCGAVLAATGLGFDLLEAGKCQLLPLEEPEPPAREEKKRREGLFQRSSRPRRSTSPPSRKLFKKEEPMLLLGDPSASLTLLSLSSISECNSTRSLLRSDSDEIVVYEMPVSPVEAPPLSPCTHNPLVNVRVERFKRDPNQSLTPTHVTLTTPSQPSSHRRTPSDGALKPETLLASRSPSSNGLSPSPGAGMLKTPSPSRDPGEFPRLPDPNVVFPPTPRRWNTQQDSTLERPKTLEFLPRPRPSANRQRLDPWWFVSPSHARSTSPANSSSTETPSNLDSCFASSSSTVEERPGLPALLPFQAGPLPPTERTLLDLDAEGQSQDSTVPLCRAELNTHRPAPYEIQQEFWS

[32] = biological target: Wee1-like protein kinase (Homo sapiens) (UniProt P30291); test: WEE1 Kinase panel; settings: Compound concentration 1.0 uM
[33] = biological target: Mitogen-activated protein kinase 9 (Homo sapiens) (UniProt P45984); test: JNK2 Kinase panel; settings: Compound concentration 1.0 uM
[34] = biological target: Ribosomal protein S6 kinase alpha-1 (Homo sapiens) (UniProt Q15418); test: RSK1 Kinase panel; settings: Compound concentration 1.0 uM
[35] = biological target: Mitogen-activated protein kinase kinase kinase kinase 4 (Homo sapiens, UniProt O95819); test: MAP4K4 Kinase panel
[36] = test system: RAF proto-oncogene serine/threonine-protein kinase (Homo sapiens), P04049 [Y340D,Y341D]; test: RAF1(Y340D,Y3\n41D) Kinase panel; settings: Compound concentration 1.0 uM
[37] = biological target: Angiopoietin-1 receptor (Homo sapiens) (UniProt Q02763); test: Tie2 Kinase panel; settings: Compound concentration 1.0 uM
[38] = biological target: 5-hydroxytryptamine receptor 1D (Homo sapiens) (UniProt P28221); settings: Compound concentration 10.0 uM
5-hydroxytryptamine receptor 1D (Homo sapiens), sequence (P28221 whole entry): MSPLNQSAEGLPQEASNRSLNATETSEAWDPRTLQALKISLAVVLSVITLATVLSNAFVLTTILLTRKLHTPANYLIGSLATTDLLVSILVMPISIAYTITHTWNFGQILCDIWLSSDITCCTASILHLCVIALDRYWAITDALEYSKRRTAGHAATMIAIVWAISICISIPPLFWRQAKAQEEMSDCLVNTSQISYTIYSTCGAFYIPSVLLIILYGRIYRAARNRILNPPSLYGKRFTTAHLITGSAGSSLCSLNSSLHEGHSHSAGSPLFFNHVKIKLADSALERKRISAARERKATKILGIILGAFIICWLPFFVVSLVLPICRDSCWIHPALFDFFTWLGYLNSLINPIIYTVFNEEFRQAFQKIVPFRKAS

[39] = biological target: Serine/threonine-protein kinase NLK (Homo sapiens) (UniProt Q9UBE8); test: NLK Kinase panel; settings: Compound concentration 1.0 uM
Serine/threonine-protein kinase NLK (Homo sapiens), sequence (Q9UBE8 whole entry): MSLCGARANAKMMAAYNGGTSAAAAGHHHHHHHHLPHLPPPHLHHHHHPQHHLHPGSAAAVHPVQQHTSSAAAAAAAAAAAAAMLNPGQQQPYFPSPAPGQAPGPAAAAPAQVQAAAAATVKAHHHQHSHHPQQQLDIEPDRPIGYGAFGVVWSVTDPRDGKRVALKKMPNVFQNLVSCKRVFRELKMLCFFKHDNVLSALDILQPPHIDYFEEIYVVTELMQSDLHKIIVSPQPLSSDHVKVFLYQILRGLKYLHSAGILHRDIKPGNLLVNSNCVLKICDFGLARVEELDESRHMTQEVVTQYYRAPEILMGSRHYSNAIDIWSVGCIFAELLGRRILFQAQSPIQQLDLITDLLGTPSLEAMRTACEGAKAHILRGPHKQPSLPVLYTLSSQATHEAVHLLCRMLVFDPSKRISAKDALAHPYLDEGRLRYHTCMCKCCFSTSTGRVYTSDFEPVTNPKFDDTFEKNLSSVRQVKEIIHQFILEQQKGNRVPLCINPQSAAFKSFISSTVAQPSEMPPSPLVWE

[40] = biological target: Calcium/calmodulin-dependent protein kinase type 1D (Homo sapiens) (UniProt Q8IU85); test: CaMKI_delta Kinase panel; settings: Compound concentration 1.0 uM
[41] = biological target: Cyclin-dependent kinase 2/cyclin A (Homo sapiens) (UniProt P24941+P20248+P78396); test: CDK2/cyclinA Kinase panel; type: protein-complex assay; settings: Compound concentration 1.0 uM
[42] = biological target: Activin receptor type-1B (Homo sapiens) (UniProt P36896); test: ACVR1B Kinase panel; settings: Compound concentration 1.0 uM
Activin receptor type-1B (Homo sapiens), sequence (P36896 whole entry): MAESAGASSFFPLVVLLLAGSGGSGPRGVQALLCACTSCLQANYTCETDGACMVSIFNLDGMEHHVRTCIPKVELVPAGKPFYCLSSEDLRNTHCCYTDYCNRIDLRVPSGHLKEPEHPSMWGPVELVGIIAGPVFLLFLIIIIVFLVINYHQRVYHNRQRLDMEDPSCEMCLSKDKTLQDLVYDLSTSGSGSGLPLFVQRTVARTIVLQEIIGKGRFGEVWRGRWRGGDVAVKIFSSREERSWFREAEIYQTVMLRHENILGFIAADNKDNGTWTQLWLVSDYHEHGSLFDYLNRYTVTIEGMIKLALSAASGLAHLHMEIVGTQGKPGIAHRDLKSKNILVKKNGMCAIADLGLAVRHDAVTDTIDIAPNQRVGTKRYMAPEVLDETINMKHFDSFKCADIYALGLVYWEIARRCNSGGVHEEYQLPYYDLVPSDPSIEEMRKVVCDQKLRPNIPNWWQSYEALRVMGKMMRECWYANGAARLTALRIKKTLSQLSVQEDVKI

[43] = biological target: Tyrosine-protein kinase Srms (Homo sapiens) (UniProt Q9H3Y6); test: Srm Kinase panel; settings: Compound concentration 1.0 uM
[44] = biological target: Homeodomain-interacting protein kinase 4 (Homo sapiens) (UniProt Q8NE63); test: HIPK4 Kinase panel; settings: Compound concentration 1.0 uM
[45] = biological target: Activin receptor type-1 (Homo sapiens) (UniProt Q04771); test: ALK2 Kinase panel; settings: Compound concentration 1.0 uM
[46] = biological target: G protein-coupled receptor kinase 3 (Homo sapiens) (UniProt P35626); test: GRK3 Kinase panel; settings: Compound concentration 1.0 uM
[47] = biological target: Casein kinase II subunit alpha (Homo sapiens) (UniProt P68400); test: CK2_alpha1 Kinase panel; settings: Compound concentration 1.0 uM
[48] = biological target: Tyrosine-protein kinase ZAP-70 (Homo sapiens) (UniProt P43403); test: ZAP-70 Kinase panel; settings: Compound concentration 1.0 uM
[49] = biological target: Mitogen-activated protein kinase 13 (Homo sapiens) (UniProt O15264); test: p38_delta Kinase panel; settings: Compound concentration 1.0 uM
[50] = biological target: Aurora kinase B (Homo sapiens) (UniProt Q96GD4); test: Aurora_B Kinase panel; settings: Compound concentration 1.0 uM
[51] = biological target: Tyrosine-protein kinase receptor UFO (Homo sapiens) (UniProt P30530); test: Axl Kinase panel; settings: Compound concentration 1.0 uM
[52] = biological target: 5-hydroxytryptamine receptor 2A (Homo sapiens) (UniProt P28223); settings: Compound concentration 10.0 uM
[53] = biological target: D(3) dopamine receptor (Homo sapiens) (UniProt P35462); settings: Compound concentration 10.0 uM
[54] = biological target: Tyrosine-protein kinase SYK (Homo sapiens) (UniProt P43405); test: Syk Kinase panel; settings: Compound concentration 1.0 uM

CC(C)(O)[C@H](F)CN1Cc2cc(NC(=O)c3cnn4cccnc34)c(N3CCOCC3)cc2C1=O
inhibition [1]: 10.5%
inhibition [2]: -0.55%
IC50 [3]: 290 nM (active)
inhibition [4]: 0.5%
inhibition [5]: -1.5%
inhibition [6]: 10.5%
inhibition [7]: 8.5%
inhibition [8]: 1.5%
inhibition [9]: -2%
IC50 [10]: 313 nM
inhibition ([10]; Compound concentration 1.0 uM): 71%
inhibition [11]: 55.3%
inhibition [12]: -2.5%
inhibition [13]: 20.5%
inhibition [14]: 13%
inhibition [15]: 1.93%
inhibition [16]: 20.3%
inhibition [17]: 1.5%
inhibition [18]: 11%
inhibition [19]: 2%
inhibition [20]: 5%
inhibition [21]: 47.8%
inhibition [22]: -0.5%
inhibition [23]: 12%
inhibition [24]: 22.5%
inhibition [25]: -2.64%
inhibition [26]: 13%
inhibition [27]: 5%
inhibition [28]: 18.5%
inhibition [29]: 7.46%
inhibition [30]: 11.2%
inhibition [31]: 14%
inhibition [32]: 5.5%
inhibition [33]: 2.5%
inhibition [34]: 7.5%
IC50 [35]: 680 nM
inhibition ([35]; Compound concentration 1.0 uM): 86.3%
inhibition [36]: -1.5%
inhibition [37]: 6.5%
inhibition [38]: 33.2%
inhibition [39]: 7%
inhibition [40]: 2%
inhibition [41]: 3%
inhibition [42]: -1%
inhibition [43]: 16%
inhibition [44]: 2.5%
inhibition [45]: 8%
inhibition [46]: -1%
inhibition [47]: 3.5%
inhibition [48]: -6.5%
inhibition [49]: 5.5%
inhibition [50]: 21.3%
inhibition [51]: 17%
inhibition [52]: -7.43%
inhibition [53]: -1.84%
inhibition [54]: 9%
